{
  "source": "patent US20260324697A1",
  "about": "“MATERIALS AND METHODS FOR MASKING BITTERNESS” (UNIVERSITY OF FLORIDA RESEARCH FOUNDATION, INCORPORATED, priority 2023, published 2026)",
  "type_in_all_cases": "in vivo, persons (trained panelists)",
  "key": {"[1]": {"test": "Sensory panel testing of perceived sweetness of 6 ppm sucrose solutions", "settings": "for Panel Score (0-15), sweetness: 0: no sweetness, 15: very sweet", "from_the_text": "Similar panel testing was done to evaluate perceived sweetness of test solutions. Panelists swirled an aliquot of test solution in the mouth for 15 seconds, spit out the test solution, and rated the perceived sweetness intensity of the test solution on a scale of 0 to 15 (0: no sweetness, 15: very sweet). Panelists drank water after each test solution evaluation before evaluating the next test solution.\n(§1) Panel testing results can be used to quantify perceived changes in sweetness in an analogous manner. The change in perceived sweetness of an ingestible composition following addition of a bitter-masking agent or other agent is defined herein as the percent change in the sweetness panel test rating of a composition to which a bitter-masking agent or other agent has been added compared to the sweetness panel test rating of the otherwise identical composition without the bitter-masking agent or other agent. For instance, if a composition is given a sweetness intensity rating of 8, and the same composition with addition of an amount of bitter-masking agent or other agent is given a sweetness intensity rating of 6, then the bitter-masking agent or other agent has provided a perceived change in sweetness of 25%.\nA similar panel test was performed to assess whether the efficacy of Compound 1 at masking bitterness is derived from imparting sweetness. A solution of 6 ppm sucrose in distilled water was used as a sweetness control solution, and Compound 1 was added to three aliquots of the sweetness control solution to provide test solutions containing 6 ppm sucrose and 25, 50, or 100 ppm of Compound 1. Panelists then evaluated the sweetness intensity of each test solution."}, "[2]": {"test": "Sensory panel testing of bitterness reduction of 6 ppm quinine solutions", "settings": "for Panel Score (0-15), bitterness: 0: no bitterness, 15: very bitter", "from_the_text": "(§2) Sensory testing was used to identify extracts that provide bitterness reduction and to evaluate the degree of bitterness reduction provided by specific compounds. In general, bitterness sensory testing involved providing test solutions to trained panelists who rated the perceived bitterness of test solutions. Panels consisted of three persons who can taste phenylthiocarbamide (PTC) test paper, and panelists were selected based on their ability to discriminate differences in the concentrations of bitterness. Panelists swirled an aliquot of a solution in the mouth for 15 seconds, spit out the test solution, and rated the perceived bitterness intensity of the solution on a scale of 0 to 15 (0: no bitterness, 15: very bitter). Panelists drank water after each test solution evaluation to remove the bitterness before evaluating the next solution.\nas §1, with “bitterness.” for “sweetness in an analogous manner.”, “bitterness” for “sweetness”, “agent” for “agent or other agent”, “bitter-masking” for “bitter-masking agent or other”\n(§3) Compound 1 was evaluated by sensory panel testing. A solution of 6 ppm quinine monohydrochloride dihydrate in distilled water was used as a control solution having high bitterness, and Compound 1 was added to aliquots of the control solution to provide test solutions containing 6 ppm quinine and 25, 50, or 100 ppm of Compound 1.\nCompounds 2-5 were also evaluated by sensory panel testing in the same manner as Compound 1.\nSensory panel tests were also performed to evaluate whether crude extracts from allspice would be effective at reducing bitterness. Allspice was mixed with boiling water to obtain a crude aqueous mixture, and solvent was removed from the crude aqueous mixture using rotary evaporation to obtain a crude extract. The crude extract was used without further purification. An aqueous solution containing 6 ppm quinine was used as a bitterness control solution, and the crude extract was added to aliquots of the control solution to provide test solutions containing 6 ppm quinine and 100 ppm or 1000 ppm of the crude extract. The three solutions were evaluated by a sensory panel as described above."}, "[3]": {"test": "Sensory panel testing of bitterness reduction of 500 ppm caffeine solutions", "settings": "for Panel Score (0-15), bitterness: 0: no bitterness, 15: very bitter", "from_the_text": "as §2\nas §1, with “bitterness.” for “sweetness in an analogous manner.”, “bitterness” for “sweetness”, “agent” for “agent or other agent”, “bitter-masking” for “bitter-masking agent or other”\nas §3, with “testing for bitterness reduction of caffeine solutions.” for “testing.”, “500” for “6”, “caffeine” for “quinine monohydrochloride dihydrate”, “caffeine” for “quinine”"}},
  "note": "Where a name gives a salt, the structure may show the parent alone.",
  "data": [
    {"compound": "COc1cc(C[C@@H](O)CO)ccc1O", "note": "[Compound 1, (2R)-3-(4-hydroxy-3-methoxyphenyl) propane-1,2-diol]", "values": [
      {"measurement": "contribution to perceived sweetness of the test solutions", "setting": "[1]; 6 ppm sucrose, 25, 50, or 100 ppm Compound 1", "result": "did not contribute to perceived sweetness of the test solutions"},
      {"measurement": "Panel Score (0-15), sweetness", "setting": "[1]; 25 ppm Compound 1 added to 6 ppm sucrose", "result": 7.2},
      {"measurement": "Panel Score (0-15), sweetness", "setting": "[1]; 50 ppm Compound 1 added to 6 ppm sucrose", "result": 6.8},
      {"measurement": "Panel Score (0-15), sweetness", "setting": "[1]; 100 ppm Compound 1 added to 6 ppm sucrose", "result": 7.2},
      {"measurement": "perceived bitterness of quinine solutions", "setting": "[2]; 6 ppm quinine, 25, 50, or 100 ppm Compound 1", "result": "markedly reduced the perceived bitterness of quinine solutions"},
      {"measurement": "Panel Score (0-15), bitterness", "setting": "[2]; 25 ppm Compound 1 added to 6 ppm quinine", "result": 5.0},
      {"measurement": "Panel Score (0-15), bitterness", "setting": "[2]; 50 ppm Compound 1 added to 6 ppm quinine", "result": 3.0},
      {"measurement": "Panel Score (0-15), bitterness", "setting": "[2]; 100 ppm Compound 1 added to 6 ppm quinine", "result": 0.8},
      {"measurement": "Panel Score (0-15), bitterness", "setting": "[3]; 25 ppm Compound 1 added to 500 ppm caffeine", "result": 3.5},
      {"measurement": "Panel Score (0-15), bitterness", "setting": "[3]; 50 ppm Compound 1 added to 500 ppm caffeine", "result": 4.0},
      {"measurement": "Panel Score (0-15), bitterness", "setting": "[3]; 100 ppm Compound 1 added to 500 ppm caffeine", "result": 3.8},
      {"measurement": "masking of the bitterness of caffeine solutions", "setting": "[3]; 500 ppm caffeine, 25, 50, or 100 ppm Compound 1", "result": "did not significantly mask the bitterness of caffeine solutions"}
    ]},
    {"compound": "OC[C@H]1O[C@@](CO)(O[C@H]2O[C@H](CO)[C@@H](O)[C@H](O)[C@H]2O)[C@@H](O)[C@@H]1O", "note": "[sucrose, reference compound]", "values": [
      {"measurement": "Panel Score (0-15), sweetness", "setting": "[1]; 6 ppm sucrose alone (control)", "result": 7.0}
    ]},
    {"compound": "Cn1c(=O)c2c(ncn2C)n(C)c1=O", "note": "[caffeine, reference compound]", "values": [
      {"measurement": "Panel Score (0-15), bitterness", "setting": "[3]; 500 ppm caffeine alone (control)", "result": 3.0}
    ]},
    {"compound": "C=C[C@H]1C[N@@]2CC[C@H]1C[C@H]2[C@H](O)c1ccnc2ccc(OC)cc12", "note": "[quinine, quinine monohydrochloride dihydrate, reference compound]", "values": [
      {"measurement": "Panel Score (0-15), bitterness", "setting": "[2]; 6 ppm quinine alone (control), Example 2", "result": 6.0},
      {"measurement": "Panel Score (0-15), bitterness", "setting": "[2]; 6 ppm quinine alone (control), Example 3", "result": 6.0}
    ]}
  ]
}
